One test deals with Enterococcus faecalis. Format: cell-based. The conditions noted are these: strain not given, Table 14, preliminary screening. The method, then:
MIC values for compounds (1-11) were assessed using 96-well plate format with Mueller Hinton (MH) broth, using the two-fold dilution method, previously reported in standard methods provided by Clinical and Laboratory Standards S8 Institute (CLSI). Kanamycin and ampicillin were used as antibacterial control agents. According to the reference, the compounds (1-11) were first dissolved in DMSO+0.1% TFA at a concentration of 3.2 mg/mL and 4 μL was serially diluted in 96 μL of MH broth. Then, sequential 2-fold serial dilutions of the mix were diluted in 50 μL MH broth and 50 μL cell cultures were added to wells. […] All assays were carried out in triplicate.

A further test deals with Pseudomonas aeruginosa. Format: cell-based. As to conditions: for MIC value: Table 15, unit inferred; for MIC: Pseudomonas aeruginosa ATCC 9027. The text has this:
(§1) The experiments were repeated three times.

The next test deals with Enterobacter cloacae. As to conditions: for MIC value: Table 15, unit inferred; for MIC: Enterobacter cloacae, strain not given, Table 14, preliminary screening. On the procedure:
(§2) MIC screening of the peptides against a panel of ATCC and clinical strains was performed using broth microdilution method.^1 Briefly, peptides stock solutions in DMSO (0.1/G TFA) were diluted into Mueller Hinton Broth (MHB), followed by two-fold serial dilution in a 96-well plate. Bacteria culture in mid-log phase was diluted into MHB to yield […] colony-forming units (CFU)/mL. Equal volume of the starting inoculum was added to the peptide samples, then incubated for 18-20 h (37° C., 120 rpm). OD600 of the samples was then measured using Tecan Infinite M200 (TECAN, Männedorf, Switzerland). MIC is defined as the lowest peptide concentration to achieve more than 90% reduction in OD600 relative to the drug-free control. The experiments were repeated three times. Colistin-resistant clinical isolates are a kind gift from Dr. Jeanette Koh (National University Hospital, Singapore). Multidrug-resistant clinical isolates are a kind gift from Dr. Lakshminarayanan Rajamani (Singapore Eye Research Institute, Singapore).
(§3) Kanamycin and ampicillin were used as antibacterial control agents. […] Then, sequential 2-fold serial dilutions of the mix were diluted in 50 μL MH broth and 50 μL cell cultures were added to wells. […] All assays were carried out in triplicate.

Another test relates to Escherichia coli. The conditions noted are these: for MIC: Escherichia coli ATCC 25922; for MIC value: Table 15, unit inferred. The method, then:
as §2, §3

For the next test, the system named is Acinetobacter baumannii. As to conditions: for MIC value: Table 15, unit inferred. The method, then: as §2, §3
Test [1] deals with Gram-positive and Gram-negative bacteria. The conditions noted are these: E. cloacae; for antibacterial activity: panel of E. coli, K. pneumoniae, A. baumannii, E. faecalis and S. aureus, preliminary screening. The method, then: as §2, §3
In a further test the test system is Staphylococcus aureus. The conditions noted are these: Staphylococcus aureus ATCC 29737. On the procedure:
as §2, §3

A further test relates to Klebsiella pneumoniae. As to conditions: for MIC value: Table 15, unit inferred. On the procedure: as §2, §3
A further test deals with Morganella morganii. Format: cell-based. As to conditions: Morganella morganii ATCC 25830.
Excerpt: as §1

A further test deals with Bacillus subtilis. Format: cell-based. As to conditions: Bacillus subtilis ATCC 6633.
Excerpt: as §1

The subject of the next test is E. coli M6. The conditions noted are these: E. coli M6, compared with xenorceptide A2 (2). The method, then: Resistance development of E. coli M6 against xenorceptide A2 was assessed by serial passaging of the bacteria in broth containing subinhibitory concentrations of the peptide. In brief, bacteria culture at mid-log phase was diluted to 10^5-10^6 CFU/mL in MHB containing 0.25×, 0.5×, 1×, 2×, and 4×MIC of the peptide. […] A new set of peptide concentration range was added to the cultures based on the latest MIC. This process was repeated over 14 days for three independent starting cultures.

Setting [2] is: Table 14, preliminary screening.
Setting [3] is: Acinetobacter baumanii ATCC 19606, Table 14, preliminary screening.
[4] abbreviates: Klebsiella pneumoniae ATC 700603, Table 14, preliminary screening.
Setting [5] is: Klebsiella pneumoniae ATCC 700603.
The mark [6] stands for this setting: Acinetobacter baumannii ATCC 19606.

≈ marks a conversion by molar mass, not a printed value. Where two headings read alike, the source gives them in different places. No end group written: not given here. A value given as a limit tells only on which side of the number the result lay.

As usually defined, the MIC is the lowest concentration found to suppress growth.

As to `CC(C)[C@@H]1NC(=O)[C@@H](NC(=O)CNC(=O)[C@H](CCC(=O)O)NC(=O)CNC(=O)[C@@H](N)CCCNC(=N)N)Cc2c[nH]c3cc(ccc23)C(CCNC(=N)N)[C@@H](C(=O)N[C@@H](C)C(=O)N[C@@H](Cc2ccc(O)cc2)C(=O)N[C@H]2Cc3c[nH]c4cc(ccc34)C(CCCN)[C@@H](C(=O)N[C@@H](CCCNC(=N)N)C(=O)N[C@@H](Cc3ccccc3)C(=O)O)NC(=O)[C@H](C)NC2=O)NC1=O` (stereo partly shown) [Compound 24, xenorceptide D1], the minimal inhibitory concentration (MIC) was 64 µg/mL (≈ 36 µM) against Enterococcus faecalis; 4 µg/mL (≈ 2.25 µM) in the test with Enterobacter cloacae; 1 µg/mL (≈ 0.562 µM) against Escherichia coli (setting [2]); 2 µg/mL (≈ 1.12 µM) in the test with Acinetobacter baumannii (setting [3]); greater than 64 µg/mL in the test on Staphylococcus aureus (setting [2]); 2 µg/mL (≈ 1.12 µM) in the test with Klebsiella pneumoniae (setting [4]). For the same molecule, the MIC value against Pseudomonas aeruginosa (Pseudomonas aeruginosa DM4150R) is 32 µg/mL (≈ 18 µM); against Pseudomonas aeruginosa (Pseudomonas aeruginosa DM23376), 16 µg/mL (≈ 9 µM); against Pseudomonas aeruginosa (Pseudomonas aeruginosa DR4877/07), 16 µg/mL (≈ 9 µM); in the test on Pseudomonas aeruginosa (Pseudomonas aeruginosa DR5790/07) it was 16 µg/mL (≈ 9 µM); against Enterobacter cloacae (Enterobacter cloacae ATCC 13047) it was 4 µg/mL (≈ 2.25 µM); against Enterobacter cloacae (Enterobacter cloacae CRE1010) it was 4 µg/mL (≈ 2.25 µM). In addition, the MIC value against Enterobacter cloacae (Enterobacter cloacae CRE1014) was 8 µg/mL (≈ 4.5 µM); in the test with Enterobacter cloacae (Enterobacter cloacae CRE1015) it was 8 µg/mL (≈ 4.5 µM); against Enterobacter cloacae (Enterobacter cloacae CRE1016), 8 µg/mL (≈ 4.5 µM); in the test with Enterobacter cloacae (Enterobacter cloacae CRE1017) it was 8 µg/mL (≈ 4.5 µM); against Escherichia coli (Escherichia coli M2), 4 µg/mL (≈ 2.25 µM); in the test with Escherichia coli (Escherichia coli M6), 2 µg/mL (≈ 1.12 µM). The MIC value against Escherichia coli (Escherichia coli M10) turned out to be 2 µg/mL (≈ 1.12 µM); against Escherichia coli (Escherichia coli M11), 2 µg/mL (≈ 1.12 µM); against Acinetobacter baumannii (Acinetobacter baumanii ACβA1001), 4 µg/mL (≈ 2.25 µM); in the test on Acinetobacter baumannii (Acinetobacter baumanii ACβA1002) it was 4 µg/mL (≈ 2.25 µM); against Acinetobacter baumannii (Acinetobacter baumanii ACβA1003), 4 µg/mL (≈ 2.25 µM); against Acinetobacter baumannii (Acinetobacter baumanii ACβA1004), 4 µg/mL (≈ 2.25 µM). Moreover, the MIC value against Acinetobacter baumannii (Acinetobacter baumanii ATCC 19606) amounted to 2 µg/mL (≈ 1.12 µM); against Klebsiella pneumoniae (ATCC 25922, printed under Klebsiella pneumoniae) it was 1 µg/mL (≈ 0.562 µM); with Klebsiella pneumoniae (CRE1006, Klebsiella pneumoniae), 2 µg/mL (≈ 1.12 µM); against Klebsiella pneumoniae (setting [5]) it was 2 µg/mL (≈ 1.12 µM); with Klebsiella pneumoniae (Klebsiella pneumoniae CRE 1007) it was 4 µg/mL (≈ 2.25 µM); in the test on Klebsiella pneumoniae (Klebsiella pneumoniae CRE1008), 4 µg/mL (≈ 2.25 µM). The MIC value against Klebsiella pneumoniae (Klebsiella pneumoniae CRE1011) is 2 µg/mL (≈ 1.12 µM); in the test on Klebsiella pneumoniae (Klebsiella pneumoniae CRE1012), 4 µg/mL (≈ 2.25 µM). The molecule also yielded an MIC value range in [1] (E. coli, A. baumannii and K. pneumoniae) of 1 to 4 µg/mL.
Turning to `C[C@H](NC(=O)[C@H](CC(N)=O)NC(=O)[C@H](C)NC(=O)[C@@H](N)Cc1ccccc1)C(=O)N[C@H](C(=O)N[C@H]1Cc2c[nH]c3cc(ccc23)C(CCCN)[C@@H](C(=O)N[C@@H](CO)C(=O)N[C@@H](Cc2ccccc2)C(=O)O)NC(=O)[C@H](CO)NC1=O)[C@@H](C)O` (stereo partly shown) [Compound 31], in test [1], the antibacterial activity entry is “no activity”.
`CC[C@H](C)[C@H](NC(=O)[C@H](CCCNC(=N)N)NC(=O)[C@H]1NC(=O)[C@H]([C@@H](C)O)NC(=O)[C@@H](NC(=O)[C@H]2NC(=O)[C@H](C)NC(=O)[C@@H](NC(=O)[C@H](C)NC(=O)[C@H]3NC(=O)[C@H]([C@@H](C)CC)NC(=O)[C@@H](N)Cc4c[nH]c5cc(ccc45)[C@@H]3C(N)=O)Cc3ccc(cc3)[C@@H]2C(N)=O)Cc2c[nH]c3cc(ccc23)[C@@H]1CCCN)C(=O)O` [xenorceptide A3]: the minimum inhibitory concentration (MIC) in the test with Morganella morganii is 64 µg/mL (≈ 42.3 µM); in the test with Pseudomonas aeruginosa, 64 µg/mL (≈ 42.3 µM); in the test on Bacillus subtilis it was greater than 64 µg/mL; in the test with Escherichia coli, 8 µg/mL (≈ 5.28 µM); with Acinetobacter baumannii (setting [6]) it was greater than 64 µg/mL; with Staphylococcus aureus, greater than 64 µg/mL. In the test on Klebsiella pneumoniae (setting [5]), the minimum inhibitory concentration (MIC) was determined as 8 µg/mL (≈ 5.28 µM). Moreover, the “MIC (E. coli)” value in the test on Escherichia coli (strain not stated, product produced and tested against E. coli) turned out to be 8 µg/mL (≈ 5.28 µM).
Consider `CC(C)[C@@H]1NC(=O)[C@@H](N)Cc2c[nH]c3cc(ccc23)C(C(N)=O)[C@@H](C(=O)N[C@@H](C)C(=O)N[C@H]2Cc3ccc(cc3)C(C(N)=O)[C@@H](C(=O)N[C@H]3Cc4c[nH]c5cc(ccc45)C(CCCN)[C@@H](C(=O)N[C@@H](CCCNC(=N)N)C(=O)N[C@@H](Cc4ccccc4)C(=O)O)NC(=O)[C@H]([C@@H](C)O)NC3=O)NC(=O)[C@H](C)NC2=O)NC1=O` (stereo partly shown) [xenorceptide A8], for which the minimum inhibitory concentration (MIC) with Pseudomonas aeruginosa was 64 µg/mL (≈ 41.7 µM); with Escherichia coli, 2 µg/mL (≈ 1.3 µM); in the test on Acinetobacter baumannii (setting [6]) it was greater than 64 µg/mL; in the test on Staphylococcus aureus it was greater than 64 µg/mL; against Klebsiella pneumoniae (setting [5]), 4 µg/mL (≈ 2.61 µM).
With RGEGWVRAYWAKRF [Compound 26], the minimum inhibitory concentration (MIC) in the test on Enterococcus faecalis, against Enterobacter cloacae, in the test with Escherichia coli (setting [2]), in the test with Acinetobacter baumannii (setting [3]), against Staphylococcus aureus (setting [2]) and against Klebsiella pneumoniae (setting [4]) was greater than 64 µg/mL in each case. Further, the antibacterial activity entry in test [1] was “not active”.
On to colistin [reference compound], for which the “development of reduced susceptibility in serial passage” value in the test with E. coli M6 is “readily became less susceptible”.

For the origin of these results see patent US20260049104A1, “PEPTIDES WITH ANTIMICROBIAL PROPERTIES” (priority 2022, published 2026).
